Columns and labels:
[1] = Direct 1H NMR titration, 1:1 binding model; conditions: 20 mM NaH2PO4 buffered (pH 7.4) D2O
Procedure: A direct titration was performed between the host and guest. The concentration of the host was kept constant while varying the concentration of the guest and the change in chemical shift of a selected host signal was measured. The change in chemical shift as a function of guest concentration was fitted to a 1:1 binding model to determine the Ka. In some cases, the concentration of guest was fixed and host concentration was varied, depending on the availability of a suitable ^1H NMR peak whose chemical shift change could be easily monitored.
1:1 Binding Model for NMR

[2] = tested on: ketamine anesthesia; experiment: EEG power and mean arterial pressure during continuous ketamine infusion; type: in vivo, rat; conditions: escalating phenylephrine infusion 4 to 10 μg/kg/min; n=3

Row | SMILES | Binding Constant with Host (Ka), morphine [1] | Binding Constant with Host (Ka), cocaine ([1]; 1:1 model) | Binding Constant with Host (Ka), ketamine ([1]; 1:1 model) | Binding Constant with Host (Ka), methamphetamine ([1]; 1:1 model) | Binding Constant with Host (Ka), phencyclidine ([1]; 1:1 model) | Binding Constant with Host (Ka), ketamine ([1]; 1:1 model, listed as 4-suldo calix[4]arene) | effect on MAP and EEG power during steady state shallow ketamine anesthesia [2]
1 | O=C1N2CN3C(=O)N4CN5C(=O)N6CN7C(=O)N8CN9C(=O)N%10CN%11C(=O)N%12CN%13C(=O)N%14CN1C1C2N2CN%15C(=O)N(CN%16C(=O)N(CN%17C(=O)N(CN%18C(=O)N(CN%19C(=O)N(CN%20C(=O)N(CN1C2=O)C%14C%13%20)C%12C%11%19)C%10C9%18)C8C7%17)C6C5%16)C4C3%15 (centres unmarked) [CB[7], cucurbit[7]uril] | <10^3 M^−1 |  |  |  |  |  | 
2 | O=S(=O)(O)c1cc2c(O)c(c1)Cc1cc(S(=O)(=O)O)cc(c1O)Cc1cc(S(=O)(=O)O)cc(c1O)Cc1cc(S(=O)(=O)O)cc(c1O)C2 [4-sulfo calix[4]arene] | (4.9±0.3)×10^4 M^−1 | (4.3±1.5)×10^4 M^−1 | ~10^5 M^−1 | (3.8±0.6)×10^4 M^−1 | (5.0±0.6)×10^4 M^−1 | ~10^5 M^−1 | 
3 | CNC[C@H](O)c1cccc(O)c1 [phenylephrine] |  |  |  |  |  |  | significant MAP increases without effects on EEG power

From US9956229B2, “Acyclic cucurbit[n]uril type molecular containers to treat intoxication and decrease relapse rate in substance abuse disorders” (UNIVERSITY OF MARYLAND, COLLEGE PARK, priority 2014, dated 2018)
